The source of these data is the Kinase Knowledgebase extract (Sharma et al. 2016).

For the test, the target named is PIK3CA (human) (UniProt P42336). Description: Assessment of PIK3CA Kinase Activity.
PIK3CA (human), sequence (P42336 whole entry, looked up): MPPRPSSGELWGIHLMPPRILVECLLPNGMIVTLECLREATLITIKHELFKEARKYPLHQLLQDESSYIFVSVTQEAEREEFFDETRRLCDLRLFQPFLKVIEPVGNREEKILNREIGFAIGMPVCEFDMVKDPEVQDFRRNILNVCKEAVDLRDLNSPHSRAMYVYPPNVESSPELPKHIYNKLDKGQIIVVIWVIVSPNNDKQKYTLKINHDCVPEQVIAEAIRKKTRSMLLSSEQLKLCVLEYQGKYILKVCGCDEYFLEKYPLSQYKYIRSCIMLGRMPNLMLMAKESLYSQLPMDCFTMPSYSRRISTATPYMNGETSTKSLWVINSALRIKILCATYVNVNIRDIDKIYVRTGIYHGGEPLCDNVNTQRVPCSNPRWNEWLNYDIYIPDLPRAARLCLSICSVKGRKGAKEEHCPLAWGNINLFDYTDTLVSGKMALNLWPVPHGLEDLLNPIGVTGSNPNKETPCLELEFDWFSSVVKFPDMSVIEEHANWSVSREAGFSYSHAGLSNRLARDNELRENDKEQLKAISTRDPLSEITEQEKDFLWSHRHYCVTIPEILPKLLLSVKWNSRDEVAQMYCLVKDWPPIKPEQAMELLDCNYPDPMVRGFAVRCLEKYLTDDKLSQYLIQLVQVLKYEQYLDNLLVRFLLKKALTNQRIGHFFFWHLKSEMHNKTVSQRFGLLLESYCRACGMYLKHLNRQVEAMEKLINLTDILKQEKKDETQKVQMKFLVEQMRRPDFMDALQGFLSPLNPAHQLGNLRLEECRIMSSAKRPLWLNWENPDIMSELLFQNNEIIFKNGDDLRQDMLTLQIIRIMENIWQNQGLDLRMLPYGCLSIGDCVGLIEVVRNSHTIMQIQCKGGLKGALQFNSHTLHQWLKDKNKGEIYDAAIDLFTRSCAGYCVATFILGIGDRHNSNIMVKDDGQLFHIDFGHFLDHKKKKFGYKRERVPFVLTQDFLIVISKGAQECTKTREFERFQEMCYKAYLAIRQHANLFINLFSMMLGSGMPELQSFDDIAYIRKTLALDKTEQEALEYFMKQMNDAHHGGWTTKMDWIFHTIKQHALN

In the case of `CC(C)(O)Cn1cc(-c2ccc3c(c2)OCCc2sc(N4C(=O)NC(=O)C4(C)C)nc2-3)cn1`, the IC50 is < 1000 nM.

What is called IC50 is the concentration at which inhibition is half-maximal. Lower therefore signals inhibition by little substance.
